Columns and labels:
[1] = molecular target: Serine/threonine-protein kinase MRCK beta (Homo sapiens) (UniProt Q9Y5S2); assay: Selectivity interaction (KinomeScan (DiscoverX)) EUB0000666a CDC42BPB; settings: at 10 µM
[2] = molecular target: T1, Bone morphogenetic protein receptor type-2 (Homo sapiens) (UniProt Q13873); assay: Selectivity interaction (Kinase panel (DSF assay)) EUB0001558a BMPR2
T1 sequence (whole entry): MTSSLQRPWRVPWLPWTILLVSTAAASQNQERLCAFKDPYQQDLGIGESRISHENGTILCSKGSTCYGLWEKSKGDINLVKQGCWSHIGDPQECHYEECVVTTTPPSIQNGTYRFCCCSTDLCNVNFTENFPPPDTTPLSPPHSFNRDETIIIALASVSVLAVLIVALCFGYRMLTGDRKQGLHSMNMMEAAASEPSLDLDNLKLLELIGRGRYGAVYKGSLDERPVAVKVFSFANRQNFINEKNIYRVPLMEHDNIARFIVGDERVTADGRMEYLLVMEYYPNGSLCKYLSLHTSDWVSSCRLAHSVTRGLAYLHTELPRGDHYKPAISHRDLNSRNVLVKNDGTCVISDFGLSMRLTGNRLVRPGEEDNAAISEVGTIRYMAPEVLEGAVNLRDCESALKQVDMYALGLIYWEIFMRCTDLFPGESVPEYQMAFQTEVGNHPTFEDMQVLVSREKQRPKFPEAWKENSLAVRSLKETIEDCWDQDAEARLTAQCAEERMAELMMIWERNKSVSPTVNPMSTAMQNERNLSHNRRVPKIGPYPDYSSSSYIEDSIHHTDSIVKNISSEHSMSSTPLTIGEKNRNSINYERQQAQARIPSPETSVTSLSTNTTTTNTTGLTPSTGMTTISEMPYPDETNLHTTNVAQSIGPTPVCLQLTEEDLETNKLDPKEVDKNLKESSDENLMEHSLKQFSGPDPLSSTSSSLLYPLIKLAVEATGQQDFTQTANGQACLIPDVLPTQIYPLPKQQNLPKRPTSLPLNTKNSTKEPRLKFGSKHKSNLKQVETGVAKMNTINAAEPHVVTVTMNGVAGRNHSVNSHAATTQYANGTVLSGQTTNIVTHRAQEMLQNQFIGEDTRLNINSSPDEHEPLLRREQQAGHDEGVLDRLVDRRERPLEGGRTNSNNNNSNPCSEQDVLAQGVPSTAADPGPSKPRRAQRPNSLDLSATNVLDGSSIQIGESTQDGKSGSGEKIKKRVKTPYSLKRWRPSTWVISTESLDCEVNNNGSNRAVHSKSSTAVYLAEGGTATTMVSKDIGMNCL

[3] = molecular target: STE20-like serine/threonine-protein kinase (Homo sapiens, UniProt Q9H2G2); assay: Selectivity interaction (KinomeScan (DiscoverX)) EUB0000045b SLK
Chain of STE20-like serine/threonine-protein kinase (Q9H2G2 whole entry, looked up): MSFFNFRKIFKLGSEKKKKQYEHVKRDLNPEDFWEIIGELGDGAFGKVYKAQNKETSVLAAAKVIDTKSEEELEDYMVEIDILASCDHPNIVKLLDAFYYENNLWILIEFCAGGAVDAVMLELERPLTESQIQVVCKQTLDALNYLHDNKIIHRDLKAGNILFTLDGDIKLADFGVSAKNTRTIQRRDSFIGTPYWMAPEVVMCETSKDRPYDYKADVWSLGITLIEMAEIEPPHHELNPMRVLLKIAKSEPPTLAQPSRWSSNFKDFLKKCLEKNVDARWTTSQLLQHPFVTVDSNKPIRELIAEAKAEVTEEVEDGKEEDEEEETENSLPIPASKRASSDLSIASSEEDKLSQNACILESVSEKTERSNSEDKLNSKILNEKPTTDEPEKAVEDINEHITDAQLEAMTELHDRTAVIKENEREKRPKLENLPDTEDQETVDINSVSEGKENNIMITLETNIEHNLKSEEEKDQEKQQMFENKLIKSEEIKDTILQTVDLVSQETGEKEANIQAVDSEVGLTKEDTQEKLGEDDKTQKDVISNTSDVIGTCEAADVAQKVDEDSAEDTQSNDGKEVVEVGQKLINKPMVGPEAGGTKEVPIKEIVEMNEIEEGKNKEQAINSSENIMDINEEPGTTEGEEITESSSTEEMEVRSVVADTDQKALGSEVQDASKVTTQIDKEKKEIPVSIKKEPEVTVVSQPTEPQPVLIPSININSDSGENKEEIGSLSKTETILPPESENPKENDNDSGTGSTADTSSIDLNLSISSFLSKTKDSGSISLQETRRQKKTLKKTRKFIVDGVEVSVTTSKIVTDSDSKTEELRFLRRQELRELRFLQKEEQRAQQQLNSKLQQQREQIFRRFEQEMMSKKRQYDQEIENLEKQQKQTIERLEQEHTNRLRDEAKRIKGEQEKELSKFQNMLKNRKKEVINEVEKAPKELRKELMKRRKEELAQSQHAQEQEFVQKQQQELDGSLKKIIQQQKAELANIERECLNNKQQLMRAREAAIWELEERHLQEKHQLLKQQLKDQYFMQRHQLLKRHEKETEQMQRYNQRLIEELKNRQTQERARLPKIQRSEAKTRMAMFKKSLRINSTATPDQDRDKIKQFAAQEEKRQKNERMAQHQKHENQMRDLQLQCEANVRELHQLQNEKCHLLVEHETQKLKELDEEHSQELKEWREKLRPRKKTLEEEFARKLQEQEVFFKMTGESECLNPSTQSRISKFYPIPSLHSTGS

[4] = molecular target: T2, Serine/threonine-protein kinase BRSK1 (Homo sapiens) (UniProt Q8TDC3); assay: Selectivity interaction (KinomeScan (DiscoverX)) EUB0000045b BRSK1
T2 sequence (whole entry): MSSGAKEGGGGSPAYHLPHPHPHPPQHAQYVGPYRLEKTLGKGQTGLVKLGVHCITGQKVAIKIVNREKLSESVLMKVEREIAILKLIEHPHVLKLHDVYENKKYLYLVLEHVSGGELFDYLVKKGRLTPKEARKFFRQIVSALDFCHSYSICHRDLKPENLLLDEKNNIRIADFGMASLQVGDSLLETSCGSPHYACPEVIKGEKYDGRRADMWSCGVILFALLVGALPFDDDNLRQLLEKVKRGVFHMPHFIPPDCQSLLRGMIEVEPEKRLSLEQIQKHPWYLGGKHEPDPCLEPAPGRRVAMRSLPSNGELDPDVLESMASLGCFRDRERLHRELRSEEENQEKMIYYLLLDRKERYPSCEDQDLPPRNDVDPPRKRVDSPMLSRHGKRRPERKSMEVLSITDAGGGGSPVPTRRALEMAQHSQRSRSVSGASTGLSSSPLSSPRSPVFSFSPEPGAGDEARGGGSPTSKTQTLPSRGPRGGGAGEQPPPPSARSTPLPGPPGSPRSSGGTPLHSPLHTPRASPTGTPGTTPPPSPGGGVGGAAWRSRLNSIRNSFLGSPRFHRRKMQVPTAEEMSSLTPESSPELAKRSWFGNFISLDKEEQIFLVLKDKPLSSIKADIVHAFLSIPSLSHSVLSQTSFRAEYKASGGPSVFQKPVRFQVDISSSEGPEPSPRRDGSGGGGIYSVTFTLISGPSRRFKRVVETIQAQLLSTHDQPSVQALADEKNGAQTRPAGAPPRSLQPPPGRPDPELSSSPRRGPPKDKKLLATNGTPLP

[5] = molecular target: T3, Phosphatidylinositol 5-phosphate 4-kinase type-2 gamma (Homo sapiens) (UniProt Q8TBX8); assay: Selectivity interaction (KinomeScan (DiscoverX)) EUB0000695a PIP4K2C; settings: at 100 nM
T3 sequence (whole entry): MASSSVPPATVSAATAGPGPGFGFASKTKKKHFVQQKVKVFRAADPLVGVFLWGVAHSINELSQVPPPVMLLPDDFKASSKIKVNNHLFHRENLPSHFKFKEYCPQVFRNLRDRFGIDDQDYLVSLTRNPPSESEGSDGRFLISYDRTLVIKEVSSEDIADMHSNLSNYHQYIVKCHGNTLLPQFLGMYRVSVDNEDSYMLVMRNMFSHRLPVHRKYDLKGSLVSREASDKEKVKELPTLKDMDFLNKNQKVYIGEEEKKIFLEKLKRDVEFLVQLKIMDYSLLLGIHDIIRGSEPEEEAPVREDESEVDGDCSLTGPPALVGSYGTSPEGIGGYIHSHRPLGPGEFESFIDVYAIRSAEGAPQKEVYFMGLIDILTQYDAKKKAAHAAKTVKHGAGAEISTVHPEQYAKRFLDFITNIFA

[6] = molecular target: Glycogen synthase kinase-3 beta (Homo sapiens, UniProt P49841); assay: Selectivity interaction (ProQinase) EUB0000171b GSK3B
Chain of Glycogen synthase kinase-3 beta (P49841 whole entry, looked up): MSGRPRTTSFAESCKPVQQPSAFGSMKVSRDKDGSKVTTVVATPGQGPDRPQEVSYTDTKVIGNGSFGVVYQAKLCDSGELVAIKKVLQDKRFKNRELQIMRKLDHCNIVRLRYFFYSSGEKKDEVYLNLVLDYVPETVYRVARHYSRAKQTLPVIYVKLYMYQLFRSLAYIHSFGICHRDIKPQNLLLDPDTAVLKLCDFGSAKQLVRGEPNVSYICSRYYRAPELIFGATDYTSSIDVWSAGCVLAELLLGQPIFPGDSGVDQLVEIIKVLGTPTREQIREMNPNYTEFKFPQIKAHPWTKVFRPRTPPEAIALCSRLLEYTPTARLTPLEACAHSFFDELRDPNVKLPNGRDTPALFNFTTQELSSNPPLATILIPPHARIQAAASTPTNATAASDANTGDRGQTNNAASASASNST

Chain of Serine/threonine-protein kinase MRCK beta (Homo sapiens) (Q9Y5S2 whole entry): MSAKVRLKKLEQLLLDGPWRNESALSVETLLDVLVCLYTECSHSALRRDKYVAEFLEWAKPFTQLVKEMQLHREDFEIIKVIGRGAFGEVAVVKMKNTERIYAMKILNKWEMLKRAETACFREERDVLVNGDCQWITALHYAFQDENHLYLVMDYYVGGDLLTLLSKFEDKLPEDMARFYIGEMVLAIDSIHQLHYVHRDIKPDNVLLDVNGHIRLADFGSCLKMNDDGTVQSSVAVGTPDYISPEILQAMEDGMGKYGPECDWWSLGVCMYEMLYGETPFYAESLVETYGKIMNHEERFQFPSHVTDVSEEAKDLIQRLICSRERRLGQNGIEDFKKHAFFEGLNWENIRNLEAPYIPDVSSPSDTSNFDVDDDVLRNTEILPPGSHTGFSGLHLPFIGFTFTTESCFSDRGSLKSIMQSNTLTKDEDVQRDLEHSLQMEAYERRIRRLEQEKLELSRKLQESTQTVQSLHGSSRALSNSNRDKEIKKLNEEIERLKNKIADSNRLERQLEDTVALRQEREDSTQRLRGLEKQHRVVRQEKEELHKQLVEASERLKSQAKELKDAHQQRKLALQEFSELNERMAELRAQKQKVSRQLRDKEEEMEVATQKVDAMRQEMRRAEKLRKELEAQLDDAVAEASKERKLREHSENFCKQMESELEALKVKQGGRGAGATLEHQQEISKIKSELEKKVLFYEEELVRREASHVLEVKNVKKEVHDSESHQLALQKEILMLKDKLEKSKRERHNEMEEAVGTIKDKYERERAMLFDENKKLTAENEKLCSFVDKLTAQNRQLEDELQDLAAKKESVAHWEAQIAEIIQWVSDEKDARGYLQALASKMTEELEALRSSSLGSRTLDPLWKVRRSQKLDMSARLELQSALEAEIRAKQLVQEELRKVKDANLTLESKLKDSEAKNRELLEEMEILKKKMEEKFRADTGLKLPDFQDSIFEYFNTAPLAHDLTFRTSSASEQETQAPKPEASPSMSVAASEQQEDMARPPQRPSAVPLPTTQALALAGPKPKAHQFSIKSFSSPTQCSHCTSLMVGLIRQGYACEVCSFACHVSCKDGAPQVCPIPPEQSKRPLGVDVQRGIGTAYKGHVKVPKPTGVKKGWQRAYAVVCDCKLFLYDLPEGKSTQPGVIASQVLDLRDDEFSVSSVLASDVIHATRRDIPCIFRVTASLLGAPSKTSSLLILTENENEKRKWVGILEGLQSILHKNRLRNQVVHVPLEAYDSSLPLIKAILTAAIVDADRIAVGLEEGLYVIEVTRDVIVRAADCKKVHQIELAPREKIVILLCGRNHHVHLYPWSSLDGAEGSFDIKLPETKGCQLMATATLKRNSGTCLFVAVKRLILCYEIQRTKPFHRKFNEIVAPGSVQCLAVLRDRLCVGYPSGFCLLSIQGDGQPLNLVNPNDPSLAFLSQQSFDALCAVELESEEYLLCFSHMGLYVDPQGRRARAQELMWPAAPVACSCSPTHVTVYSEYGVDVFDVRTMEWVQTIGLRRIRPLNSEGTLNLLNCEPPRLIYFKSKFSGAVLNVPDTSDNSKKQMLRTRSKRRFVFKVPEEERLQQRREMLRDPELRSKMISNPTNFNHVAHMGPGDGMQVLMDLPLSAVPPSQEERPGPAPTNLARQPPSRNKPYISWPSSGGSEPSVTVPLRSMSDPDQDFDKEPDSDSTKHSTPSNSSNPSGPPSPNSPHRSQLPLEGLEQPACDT

Structure (SMILES): O=C(NOC[C@H](O)CO)c1ccc(F)c(F)c1Nc1ccc(I)cc1F
- % of control [1]: 83%

Structure (SMILES): CC(C)(O)[C@H](F)CN1Cc2cc(NC(=O)c3cnn4cccnc34)c(N3CCOCC3)cc2C1=O
- dTM [2]: 2.1 K

Structure (SMILES): C=CC(=O)Nc1cc(-n2c(=O)ccc3cnc4ccc(-c5ccc(NS(C)(=O)=O)cc5)cc4c32)ccc1C
- % of control ([3]; at 1 µM): 59%
- % of control ([3]; at 10 µM): 100%
- % of control ([4]; at 1 µM): 100%
- % of control ([4]; at 10 µM): 97%

Structure (SMILES): Cc1cc(F)c(C(=O)Nc2cccc(-c3nncn3C(C)C)n2)cc1-n1cnc(C2CC2)c1
- % of control [5]: 100%

Structure (SMILES): C=CC(=O)Nc1cccc(C(=O)Nc2ccc(Nc3cc(-c4[nH]c(SC)nc4C)ccn3)cc2)c1
- % of control ([6]; at 1 µM): 91%
- % of control ([6]; at 5 µM): 85%

From ChEMBL document CHEMBL5465560, “Selectivity Literature for EUbOPEN Chemogenomic Library” (2024)
